Values after ≈ are worked out from the molar mass of the structure shown. Like-named read-outs stand apart in the source and are kept apart here.
What was measured:
Candida albicans = settings: cited from earlier work
Aspergillus fumigatus = settings: cited from earlier work
H. capsulatum [1] = settings: read-out: H. capsulatum IC50; cited from earlier work
[2] = system: C. neoformans (H99 strain); settings: read-out: C. neoformans (H99 strain) IC50; cited from earlier work
H. capsulatum [3] = assay type: cell-based, Histoplasma capsulatum; settings: for times more active than 41F5 against H. capsulatum: relative to 41F5; for activity against H. capsulatum evaluated comparatively at pH 5 and pH 7: pH 5 versus pH 7 (SM-S.2)
[4] = system: C. neoformans (H99 strain); test: microbe, parasite or virus in culture; assay type: cell-based, Cryptococcus neoformans
Blastomyces dermatitidis = settings: cited from earlier work

## Cc1ccc(Oc2ccccc2-c2csc(N=C3NCCCN3)n2)c(C)c1 [Abafungin]
Candida albicans
  activity against Candida albicans: active
Aspergillus fumigatus
  activity against Aspergillus fumigatus: active

## O=C(CCC1CCCCC1)Nc1ncc(Cc2ccccc2)s1 [C]
H. capsulatum [1]
  IC50: 700 nM
[2]
  IC50: > 10000 nM

## O=C(Nc1ncc(Cc2cccc3sccc23)s1)C1CCCCC1 [Compound 22b]
H. capsulatum [3]
  times more active than 41F5 against H. capsulatum: ~ 2 times
[4]
  times more active than 41F5 against C. neoformans: ~ 2 times
[4]; Cryptococcus neoformans, read-out: C. neoformans (H99 strain) IC50 [±SD]
  IC50: 370 nM
[4]; Cryptococcus neoformans, read-out: C. neoformans (H99 strain) MIC
  MIC: 1.25 µM (≈ 0.446 µg/mL)

## O=C(Nc1ncc(Cc2cccc3c2CCC3)s1)C1CCCCC1 [Compound 26b]
H. capsulatum [3]
  times more active than 41F5 against H. capsulatum: ~ 2 times
[4]
  times more active than 41F5 against C. neoformans: ~ 2 times

## O=C(CCC1CCCCC1)Nc1ncc(Cc2csc3ccccc23)s1 [Compound 23a]
H. capsulatum [3]
  times more active than 41F5 against H. capsulatum: ~ 2 times

## O=C(CCC1CCCCC1)Nc1ncc(Cc2ccccn2)s1 [Compound 29a]
H. capsulatum [3]
  activity against H. capsulatum evaluated comparatively at pH 5 and pH 7: No significant differences
[4]
  activity against C. neoformans evaluated comparatively at pH 5 and pH 7: No significant differences

## O=C(Nc1ncc(Cc2cccc3ccsc23)s1)C1CCCCC1 [Compound 17b]
H. capsulatum [3]
  times more active than 41F5 against H. capsulatum: ~ 2 times
[4]
  times more active than 41F5 against C. neoformans: ~ 2 times

## O=C(Nc1ncc(Cc2cccnc2)s1)C1CCCCC1 [Compound 31]
H. capsulatum [3]
  activity against H. capsulatum evaluated comparatively at pH 5 and pH 7: No significant differences
[4]
  activity against C. neoformans evaluated comparatively at pH 5 and pH 7: No significant differences

## O=C(c1cnc(NC(=O)C2CCCCC2)s1)c1cccc2ccccc12 [Compound 36b]
H. capsulatum [3]
  times more active than 41F5 against H. capsulatum: ~ 2 times

## O=C(CCC1CCCCC1)Nc1ncc(Cc2cccc3sccc23)s1 [Compound 22a]
H. capsulatum [3]
  times more active than 41F5 against H. capsulatum: ~ 2 times

## O=C(CCC1CCCCC1)Nc1ncc(Cc2ccnc3ccccc23)s1 [Compound 28a]
H. capsulatum [3]
  activity against H. capsulatum evaluated comparatively at pH 5 and pH 7: No significant differences
[4]
  activity against C. neoformans evaluated comparatively at pH 5 and pH 7: No significant differences

## O=C(CCC1CCCCC1)Nc1ncc(Cc2cccc3ccccc23)s1 [A]
H. capsulatum [1]
  IC50: 400 nM
[2]
  IC50: > 10000 nM

## O=C(Nc1ncc(Cc2ccccc2)s1)C1CCCCC1 [B]
H. capsulatum [1]
  IC50: 1600 nM

## O=C(CCC1CCCCC1)Nc1ncc(Cc2cccc3nsnc23)s1 [Compound 20a]
H. capsulatum [3]
  activity against H. capsulatum evaluated comparatively at pH 5 and pH 7: No significant differences
[4]
  activity against C. neoformans evaluated comparatively at pH 5 and pH 7: No significant differences

## O=C(CCC1CCCCC1)Nc1ncc(Cc2ccncc2)s1 [Compound 32a]
H. capsulatum [3]
  activity against H. capsulatum evaluated comparatively at pH 5 and pH 7: No significant differences
[4]
  activity against C. neoformans evaluated comparatively at pH 5 and pH 7: No significant differences

## O=C(Nc1ncc(Cc2cccc3ccccc23)s1)C1CCCCC1 [Compound 41F5, N-[5-(1-naphthalenylmethyl)-2-thiazolyl]cyclohexanecarboxamide]
H. capsulatum [1]
  IC50: 400 nM
[2]
  IC50: 400 nM
Candida albicans
  activity against Candida albicans: inactive
Aspergillus fumigatus
  activity against Aspergillus fumigatus: inactive
Blastomyces dermatitidis
  activity against Blastomyces dermatitidis: inactive

Reference: paper PMC5935597 (Bioorganic & medicinal chemistry, 2018)
